For 31 compounds, IC50 results are on record in patent US20230019236A1, “PROTEIN TYROSINE PHOSPHATASE INHIBITORS AND METHODS OF USE THEREOF” (Calico Life Sciences LLC, priority 2019, published 2023).

Molecules are shown by their SMILES.

The target of the test is T1, His tagged full-length PTP1B protein (Homo sapiens, UniProt P18031).
T1 construct: made in house
T1 sequence (P18031 with tags, fused parts or gaps): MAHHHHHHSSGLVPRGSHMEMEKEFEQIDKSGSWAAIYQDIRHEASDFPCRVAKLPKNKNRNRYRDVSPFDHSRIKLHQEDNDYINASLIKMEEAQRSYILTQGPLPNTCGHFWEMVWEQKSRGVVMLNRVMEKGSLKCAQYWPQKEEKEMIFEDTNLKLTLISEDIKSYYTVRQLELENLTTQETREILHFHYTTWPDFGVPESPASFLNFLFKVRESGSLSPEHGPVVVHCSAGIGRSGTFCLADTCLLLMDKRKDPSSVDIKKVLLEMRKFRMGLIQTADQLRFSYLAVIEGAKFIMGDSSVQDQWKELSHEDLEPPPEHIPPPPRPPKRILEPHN
Put plainly: Mobility Shift Assay (MSA) used to determine potency of PTP1B inhibitors. It is filed as biochemical. The note with it: Table 2. The procedure: The enzymatic assay used to determine activity is a mobility shift assay using a LabChip EZ Reader by Caliper Life Sciences. The enzymatic reaction was carried out in assay buffer (50 mM HEPES pH 7.5, 1 mM EGTA, 10 mM EDTA, 0.01% Tween® 20, and 2 mM DTT). […] The enzyme (at 0.5 nM) was incubated with compound for 10 minutes at room temperature. […] The % inhibition was then used to calculate the IC50 values.
One may read the IC50 as the concentration that gives 50% inhibition. Take `O=C1CN(c2c(O)cc3ccc(C4=CCN(C(=O)C5CC5)C4)cc3c2F)S(=O)(=O)N1` [Compound 237, 5-{7-[1-(cyclopropanecarbonyl)-2,5-dihydro-1H-pyrrol-3-yl]-1-fluoro-3-hydroxynaphthalen-2-yl}-1λ^6,2,5-thiadiazolidine-1,1,3-trione]: the 50% inhibitory concentration (IC50) is less than 0.001 µM. For `COc1ccc2c(Cl)c(O)c(N3CC(=O)NS3(=O)=O)c(F)c2c1` [Compound 238, 5-(4-chloro-1-fluoro-3-hydroxy-7-methoxynaphthalen-2-yl)-1λ^6,2,5-thiadiazolidine-1,1,3-trione], the IC50 was more than 0.1 µM. The result for `O=C1CN(c2c(O)cc3ccc(/C=C/C4CC4)cc3c2F)S(=O)(=O)N1` [Compound 239, 5-{7-[(E)-2-cyclopropylethenyl]-1-fluoro-3-hydroxynaphthalen-2-yl}-1λ^6,2,5-thiadiazolidine-1,1,3-trione] reads 0.01 to 0.1 µM; that for `CC(C)C/C=C/c1ccc2cc(O)c(N3CC(=O)NS3(=O)=O)c(F)c2c1` [Compound 240, 5-{1-fluoro-3-hydroxy-7-[(1E)-4-methylpent-1-en-1-yl]naphthalen-2-yl}-1λ^6,2,5-thiadiazolidine-1,1,3-trione], 0.001 to 0.01 µM; that for `C=C(c1ccc2cc(O)c(N3CC(=O)NS3(=O)=O)c(F)c2c1)c1c(C)c(C)c(C)c(C)c1C` [Compound 241, 5-{1-fluoro-3-hydroxy-7-[1-(pentamethylphenyl)ethenyl]naphthalen-2-yl}-1λ^6,2,5-thiadiazolidine-1,1,3-trione], more than 0.1 µM. Regarding `O=C1CN(c2c(O)cc3ccc(C4=CCN(CC5CC5)C4)cc3c2F)S(=O)(=O)N1` [Compound 242, 5-{7-[1-(cyclopropylmethyl)-2,5-dihydro-1H-pyrrol-3-yl]-1-fluoro-3-hydroxynaphthalen-2-yl}-1λ^6,2,5-thiadiazolidine-1,1,3-trione], the IC50 is 0.001 to 0.01 µM. In the case of `COc1ccc2c(Br)c(O)c(N3CC(=O)NS3(=O)=O)c(F)c2c1` [Compound 243, 5-(4-bromo-1-fluoro-3-hydroxy-7-methoxynaphthalen-2-yl)-1λ^6,2,5-thiadiazolidine-1,1,3-trione], the IC50 was more than 0.1 µM. The result for `COC/C=C/c1ccc2cc(O)c(N3CC(=O)NS3(=O)=O)c(F)c2c1` [Compound 245, 5-{1-fluoro-3-hydroxy-7-[(1E)-3-methoxyprop-1-en-1-yl]naphthalen-2-yl}-1λ^6,2,5-thiadiazolidine-1,1,3-trione] reads 0.001 to 0.01 µM; that for `CCOCCOc1ccc2cc(O)c(N3CC(=O)NS3(=O)=O)c(F)c2c1` [Compound 246, 5-[7-(2-ethoxyethoxy)-1-fluoro-3-hydroxynaphthalen-2-yl]-1λ^6,2,5-thiadiazolidine-1,1,3-trione], more than 0.1 µM. For the compound `COCCCOc1ccc2cc(O)c(N3CC(=O)NS3(=O)=O)c(F)c2c1` [Compound 247, 5-[1-fluoro-3-hydroxy-7-(3-methoxypropoxy)naphthalen-2-yl]-1λ^6,2,5-thiadiazolidine-1,1,3-trione], the IC50 fell in the range of 0.001 to 0.01 µM. For `O=C1CN(c2c(O)cc3ccc(C4CCS(=O)(=O)CC4)cc3c2F)S(=O)(=O)N1` [Compound 248, 5-[7-(1,1-dioxo-1λ^6-thian-4-yl)-1-fluoro-3-hydroxynaphthalen-2-yl]-1λ^6,2,5-thiadiazolidine-1,1,3-trione], the IC50 is more than 0.1 µM. Turning to `O=C1CN(c2c(O)cc3ccc(OCC4CC4)cc3c2F)S(=O)(=O)N1` [Compound 250, 5-[7-(cyclopropylmethoxy)-1-fluoro-3-hydroxynaphthalen-2-yl]-1λ^6,2,5-thiadiazolidine-1,1,3-trione], the IC50 fell in the range of 0.001 to 0.01 µM. In the case of `O=C1CN(c2c(O)cc3ccc(CC4CCN(CC(F)(F)F)CC4)cc3c2F)S(=O)(=O)N1` [Compound 252, 5-(1-fluoro-3-hydroxy-7-{[1-(2,2,2-trifluoroethyl)piperidin-4-yl]methyl}naphthalen-2-yl)-1λ^6,2,5-thiadiazolidine-1,1,3-trione], the IC50 is 0.001 to 0.01 µM.

For the compound `O=C1CN(c2c(O)cc3ccc(CC4CN(S(=O)(=O)C5CC5)C4)cc3c2F)S(=O)(=O)N1` [Compound 256, 5-(7-{[1-(cyclopropanesulfonyl)azetidin-3-yl]methyl}-1-fluoro-3-hydroxynaphthalen-2-yl)-1λ^6,2,5-thiadiazolidine-1,1,3-trione], the half-inhibitory concentration (IC50) lay within 0.001 to 0.01 µM. With `O=C1CN(c2c(O)cc3ccc(C4=CCOC4)cc3c2F)S(=O)(=O)N1` [Compound 263, 5-[7-(2,5-dihydrofuran-3-yl)-1-fluoro-3-hydroxynaphthalen-2-yl]-1λ^6,2,5-thiadiazolidine-1,1,3-trione], the IC50 was 0.01 to 0.1 µM. With `O=C1CN(c2c(O)cc3ccc(C4=CCOCC4)cc3c2F)S(=O)(=O)N1` [Compound 264, 5-[7-(3,6-dihydro-2H-pyran-4-yl)-1-fluoro-3-hydroxynaphthalen-2-yl]-1λ^6,2,5-thiadiazolidine-1,1,3-trione], the half-inhibitory concentration (IC50) lay within 0.01 to 0.1 µM. Regarding `O=C1CN(c2c(O)cc3ccc(C4=CCNC4)cc3c2F)S(=O)(=O)N1` [Compound 265, 5-[7-(2,5-dihydro-1H-pyrrol-3-yl)-1-fluoro-3-hydroxynaphthalen-2-yl]-1λ^6,2,5-thiadiazolidine-1,1,3-trione], the IC50 lay in the range of 0.001 to 0.01 µM.

Turning to `O=C1CN(c2c(O)cc3ccc(-c4cccnc4)cc3c2F)S(=O)(=O)N1` [Compound 266, 5-[1-fluoro-3-hydroxy-7-(pyridin-3-yl)naphthalen-2-yl]-1λ^6,2,5-thiadiazolidine-1,1,3-trione], the IC50 is more than 0.1 µM.

For the compound `O=C1CN(c2c(O)cc3ccc(CC4CNC4)cc3c2F)S(=O)(=O)N1` [Compound 267, 5-{7-[(azetidin-3-yl)methyl]-1-fluoro-3-hydroxynaphthalen-2-yl}-1λ^6,2,5-thiadiazolidine-1,1,3-trione], the IC50 was in the range of 0.01 to 0.1 µM. The result for `O=C(CNc1ccc2cc(O)c(N3CC(=O)NS3(=O)=O)c(F)c2c1)NCCC1CC1` [Compound 268, N-(2-cyclopropylethyl)-2-{[8-fluoro-6-hydroxy-7-(1,1,4-trioxo-1λ^6,2,5-thiadiazolidin-2-yl)naphthalen-2-yl]amino}acetamide] reads 0.01 to 0.1 µM. As for `CNC(=O)CCCOc1ccc2cc(O)c(N3CC(=O)NS3(=O)=O)c(F)c2c1` [Compound 269, 4-{[8-fluoro-6-hydroxy-7-(1,1,4-trioxo-1λ^6,2,5-thiadiazolidin-2-yl)naphthalen-2-yl]oxy}—N-methylbutanamide], the figure is 0.001 to 0.01 µM; as for `CCNC(=O)NCCOc1ccc2cc(O)c(N3CC(=O)NS3(=O)=O)c(F)c2c1` [Compound 270, N-ethyl-N′-(2-{[8-fluoro-6-hydroxy-7-(1,1,4-trioxo-1λ^6,2,5-thiadiazolidin-2-yl)naphthalen-2-yl]oxy}ethyl)urea], 0.001 to 0.01 µM; as for `O=C1CN(c2c(O)cc3ccc(OCC4CCOCC4)cc3c2F)S(=O)(=O)N1` [Compound 273, 5-{1-fluoro-3-hydroxy-7-[(oxan-4-yl)methoxy]naphthalen-2-yl}-1λ^6,2,5-thiadiazolidine-1,1,3-trione], more than 0.1 µM. The result for `O=C1CN(c2c(O)cc3ccc(OC4COC4)cc3c2F)S(=O)(=O)N1` [Compound 274, 5-{1-fluoro-3-hydroxy-7-[(oxetan-3-yl)oxy]naphthalen-2-yl}-1λ^6,2,5-thiadiazolidine-1,1,3-trione] reads 0.001 to 0.01 µM.

For `O=C1CN(c2c(O)cc3ccc(C4=CCN(CC(F)(F)F)CC4)cc3c2F)S(=O)(=O)N1` [Compound 275, 5-{1-fluoro-3-hydroxy-7-[1-(2,2,2-trifluoroethyl)-1,2,3,6-tetrahydropyridin-4-yl]naphthalen-2-yl}-1λ^6,2,5-thiadiazolidine-1,1,3-trione], the IC50 was in the range of 0.01 to 0.1 µM. The result for `O=C1CN(c2c(O)cc3ccc(O)cc3c2F)S(=O)(=O)N1` [Compound 276, 5-(1-fluoro-3,7-dihydroxynaphthalen-2-yl)-1λ^6,2,5-thiadiazolidine-1,1,3-trione] reads more than 0.1 µM. On to `O=C1CN(c2c(O)cc3ccc(OCCO)cc3c2F)S(=O)(=O)N1` [Compound 277, 5-[1-fluoro-3-hydroxy-7-(2-hydroxyethoxy)naphthalen-2-yl]-1λ^6,2,5-thiadiazolidine-1,1,3-trione], for which the IC50 is more than 0.1 µM. As for `CCCOc1ccc2cc(O)c(N3CC(=O)NS3(=O)=O)c(F)c2c1` [Compound 278, 5-(1-fluoro-3-hydroxy-7-propoxynaphthalen-2-yl)-1λ^6,2,5-thiadiazolidine-1,1,3-trione], the figure is 0.01 to 0.1 µM; as for `CC(C)Oc1ccc2cc(O)c(N3CC(=O)NS3(=O)=O)c(F)c2c1` [Compound 279, 5-{1-fluoro-3-hydroxy-7-[(propan-2-yl)oxy]naphthalen-2-yl}-1λ^6,2,5-thiadiazolidine-1,1,3-trione], more than 0.1 µM. As for `O=C(O)CNc1ccc2cc(O)c(N3CC(=O)NS3(=O)=O)c(F)c2c1` [Compound 280, {[8-fluoro-6-hydroxy-7-(1,1,4-trioxo-1λ^6,2,5-thiadiazolidin-2-yl)naphthalen-2-yl]amino}acetic acid], the IC50 is more than 0.1 µM. For `O=C(COc1ccc2cc(O)c(N3CC(=O)NS3(=O)=O)c(F)c2c1)NCCC1CC1` [Compound 281, N-(2-cyclopropylethyl)-2-{[8-fluoro-6-hydroxy-7-(1,1,4-trioxo-1λ^6,2,5-thiadiazolidin-2-yl)naphthalen-2-yl]oxy}acetamide], the IC50 lay in the range of 0.01 to 0.1 µM.
